Among the data in US20080090756A1, “Somatostatin agonists” (The Administrators of the Tulane Educational Fund, priority 2001, published 2008) are IC50 and Kd values, retold here.

Bridge positions count the residues as written; N and C are the ends. Square brackets hold non-standard residues; d marks the D form. Peptide text beside a SMILES is read from it. NMeT = CN[C@H](C(=O)O)[C@@H](C)O

The test system of test [1] is Culture Rat Pituitary Cells. The class given is cell-based. To be noted: inhibition of GH release, dispersed rat anterior pituitary cells, GHRH(1-29)NH2 1 nM, 3 h at 37° C.; mean ± SEM of (n) dose response curves; read-out: Agonist IC50 ± SEM (n). The procedure: SRIF Analogue Inhibition of GH Release. Anterior pituitaries from adult male rats were collected and dispersed by a previously described trypsin/DNase method. […] The cells were randomly plated at a density of approximately 200,000 cells/well (Costar cluster 24; Rochester Scientific Co., Rochester, N.Y.). […] In preparation for a hormone challenge, the cells were washed with medium 199 (Gibco, 3×1 mL). Each dose of a compound of this invention was tested in triplicate wells in a total volume of 1 mL medium 199 containing 1% BSA (fraction V; Sigma Chemical Co.). All wells contained GHRH(1-29)NH2 (1 nM). After incubation in an air/carbon dioxide atmosphere (95/5%, 3 h at 37° C.), the medium was removed and stored at −20° C. until assayed for hormone content. Growth hormone in media was measured by a standard double antibody RIA using components generously supplied by Dr. A. F. Parlow at the National Hormone and Pituitary Program (NHHP) Torrance, Calif. Agonist IC50's were calculated using Sigmaplot (Jandel Scientific, San Rafael, Calif.). Values are expressed as the mean IC50 (nM)±SEM from (n) separate dose-response curves.

The target of a further test is T1, hSSTR-1 (Homo sapiens, UniProt P30872).
T1 construct: each containing the entire coding region of the full-length receptors; expressed in transfected cells
T1 sequence (P30872 whole entry): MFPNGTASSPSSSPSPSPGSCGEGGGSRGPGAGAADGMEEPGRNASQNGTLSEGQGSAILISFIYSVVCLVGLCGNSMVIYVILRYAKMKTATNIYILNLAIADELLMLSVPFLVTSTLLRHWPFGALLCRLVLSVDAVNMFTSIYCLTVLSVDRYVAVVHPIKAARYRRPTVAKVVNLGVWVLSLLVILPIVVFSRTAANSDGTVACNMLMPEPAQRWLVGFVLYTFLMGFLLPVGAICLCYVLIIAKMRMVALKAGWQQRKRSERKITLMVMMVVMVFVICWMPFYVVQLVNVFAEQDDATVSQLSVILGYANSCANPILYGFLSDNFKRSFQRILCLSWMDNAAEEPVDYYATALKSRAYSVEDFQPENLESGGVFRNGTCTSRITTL
As to the kind of experiment: Radioligand binding assay, cloned human somatostatin receptor type 1. The note with it: CHO-K1 cell membranes, displacement of [125I]Tyr11-SRIF; mean ± SEM, single values = one experiment; read-out: Kd ± SEM hsst1. The text has this:
(§1) Functional Expression of the Cloned Human Somatostatin Receptors. The genomic clones containing the human somatostatin receptors (hSSTR-1 to hSSTR-5) (Yamada, Y., et al. al., Proc. Natl. Acad. Sci. USA. 1992, 89, 251-255; Yasuda, K., et al., J. Biol. Chem. 1992, 267, 20422-20428; Yamada, Y., et al., Mol. Pharmacol. 1992, 42, 2136-2142; Rohrer, L., et al., Proc. Natl. Acad. Sci. USA. 1993, 90, 4196-4200.) were kindly provided by Dr. Graeme I. Bell of the University of Chicago. The hSSTR-1, hSSTR-2, hSSTR-3, hSSTR-4 and hSSTR-5 cDNAs were isolated as a 1.5-kb PstI-XmnI fragment, 1.7-kb BamHI-HindIII fragment, 2.0-kb NcoI-HindIII fragment, 1.4-kb NheI-NdeI fragment, and a 1.2-kb HindIII-XbaI fragment, respectively, each containing the entire coding region of the full-length receptors. These fragments were independently subcloned into the corresponding restriction endonuclease sites in the mammalian expression vector pCMV5, downstream from the human cytomegalovirus (CMV) promoter, to produce the expression plasmids pCMV5/hSSTR-1, pCMV5/hSSTR-2, pCMV5/hSSTR-3, pCMV5/hSSTR-4 and pCMV5/hSSTR-5. For transfection into CHO-K1 cells, a plasmid, pRSV-neo (American Type Culture Collection, Rockville, Md.), carrying the neomycin mammalian cell selectable marker was added.
(§2) Receptor Expression and Transfection. Transfections were performed by the calcium phosphate method. CHO-K1 cells were maintained in α-minimum essential medium (α-MEM; Gibco) supplemented with 10% fetal calf serum and transfected with each of the expression plasmids using calcium phosphate precipitation. Clones that had inherited the expression plasmid were selected in α-MEM supplemented with 500 μg mL^−1 of geneticin (G418; Gibco). Independent CHO-K1 clones were picked by glass-ring cloning and expanded in culture in the selective media. Membranes were prepared from the isolated clones and hSSTR expression was initially assessed for binding with [^125I]Tyr^11-SRIF and [^125I]MK-678 (for SSTR-2).
(§3) Radioligand Binding Assays. Cell membranes of the 5 cells types were obtained from homogenates (Polytron setting 6, 15 sec) of the corresponding CHO-K1 cells, in ice-cold Tris-HCl (50 mM) and centrifuged (39000 g, 10 min×2), with an intermediate resuspension in fresh buffer. The final pellets were resuspended in Tris-HCl (10 mM) for assay. Aliquots of the membranes were incubated (30 min at 37° C.) with 0.05 nM [^125I]Tyr^11-SRIF (types 1, 3, 4, 5) or [^125I]MK-678 (type 2) in […] (pH 7.4) containing BSA (10 mg mL^−1); MgCl2 (5 mM), Trasylol (200 kIU mL^−1), bacitracin (0.02 mg mL^−1), and phenylmethanesulfonyl fluoride (0.02 mg mL^−1). The final assay volume was 0.3 mL and incubations were terminated by rapid filtration through GF/C filters pre-soaked in 0.3% poly(ethylenimine) using a Brandel rapid filtration module. Each tube and filter was then washed with aliquots of cold buffer (3×5 mL).
(§4) Specific binding is defined as the total radioligand bound minus that bound in the presence of 1.0 μM SRIF. The following total radioligand binding and non-specific binding (nsb) values were typically obtained with these assay systems: hSSTR-1, 7000 cpm total versus 3500 cpm nsb; hSSTR-2, 9000 cpm total versus 1000 cpm nsb; hSSTR-3, 8000 cpm total versus 1000 cpm nsb; hSSTR-4, 6000 cpm total versus 3500 cpm nsb; and hSSTR-5, 7500 cpm total versus 3500 cpm nsb. The binding affinities are expressed as Ki values ±SEM (nM) for each of the five receptor subtypes. Ki values derived for representative compounds of the instant invention are detailed in Table 2.
(§5) The binding affinities (Kd, nM) of all SRIF analogues were determined using their concentration-dependent displacement of ^125I-radiolabeled peptide ligands from membranes isolated from CHO cells transfected with the corresponding human somatostatin receptor.

In another test the target is T2, hSSTR-3 (Homo sapiens, UniProt P32745).
T2 construct: each containing the entire coding region of the full-length receptors; expressed in transfected cells
T2 sequence (P32745 whole entry): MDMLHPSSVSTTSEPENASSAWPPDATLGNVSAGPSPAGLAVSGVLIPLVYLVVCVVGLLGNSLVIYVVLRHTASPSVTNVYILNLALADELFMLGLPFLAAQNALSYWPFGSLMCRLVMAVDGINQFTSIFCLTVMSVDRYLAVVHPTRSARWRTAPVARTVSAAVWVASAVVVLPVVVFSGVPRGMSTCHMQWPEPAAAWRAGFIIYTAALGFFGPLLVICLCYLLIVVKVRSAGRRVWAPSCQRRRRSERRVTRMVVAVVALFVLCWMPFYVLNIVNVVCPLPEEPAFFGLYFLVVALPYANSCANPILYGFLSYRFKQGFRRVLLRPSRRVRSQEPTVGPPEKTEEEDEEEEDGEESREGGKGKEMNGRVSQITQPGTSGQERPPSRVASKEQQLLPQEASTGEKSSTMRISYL
Briefly: Radioligand binding assay, cloned human somatostatin receptor type 3. To be noted: CHO-K1 cell membranes, displacement of [125I]Tyr11-SRIF; mean ± SEM, single values = one experiment; read-out: Kd ± SEM hsst3.
Description: as §1, §2, §3, §4, §5

For the next test, the target named is T3, hSSTR-5 (Homo sapiens, UniProt P35346).
T3 construct: each containing the entire coding region of the full-length receptors; expressed in transfected cells
T3 sequence (P35346 whole entry): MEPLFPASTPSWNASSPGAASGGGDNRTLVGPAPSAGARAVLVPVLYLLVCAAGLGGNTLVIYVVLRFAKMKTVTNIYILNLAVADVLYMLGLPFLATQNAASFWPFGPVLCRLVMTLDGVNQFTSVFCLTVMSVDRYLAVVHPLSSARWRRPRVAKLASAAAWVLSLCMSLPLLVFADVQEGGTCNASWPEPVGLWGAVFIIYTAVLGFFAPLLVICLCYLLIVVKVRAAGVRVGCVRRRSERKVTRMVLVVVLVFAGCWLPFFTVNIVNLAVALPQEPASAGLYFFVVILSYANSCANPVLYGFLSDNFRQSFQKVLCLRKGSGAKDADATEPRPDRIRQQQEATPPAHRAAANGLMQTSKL
As to the kind of experiment: Radioligand binding assay, cloned human somatostatin receptor type 5. To be noted: CHO-K1 cell membranes, displacement of [125I]Tyr11-SRIF; mean ± SEM, single values = one experiment; read-out: Kd ± SEM hsst5.
Description: as §1, §2, §3, §4, §5
(In general: Loss of bound radioactivity is the signal in a displacement assay; it reports binding, not function.)

A further test deals with T4, hSSTR-2 (Homo sapiens, UniProt P30874).
T4 construct: each containing the entire coding region of the full-length receptors; expressed in transfected cells
T4 sequence (P30874 whole entry): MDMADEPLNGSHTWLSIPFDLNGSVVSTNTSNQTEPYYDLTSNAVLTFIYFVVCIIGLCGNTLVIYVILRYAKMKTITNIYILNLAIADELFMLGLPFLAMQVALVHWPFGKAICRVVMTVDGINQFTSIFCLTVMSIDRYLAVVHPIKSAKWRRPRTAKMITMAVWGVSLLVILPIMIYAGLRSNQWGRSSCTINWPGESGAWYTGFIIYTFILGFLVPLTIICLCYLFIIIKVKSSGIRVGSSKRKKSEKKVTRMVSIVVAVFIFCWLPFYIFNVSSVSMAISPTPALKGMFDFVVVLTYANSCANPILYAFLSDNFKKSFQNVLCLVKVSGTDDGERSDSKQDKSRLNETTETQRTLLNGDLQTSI
As to the kind of experiment: Radioligand binding assay, cloned human somatostatin receptor type 2. The note with it: CHO-K1 cell membranes, displacement of [125I]MK-678; mean ± SEM, single values = one experiment; read-out: Kd ± SEM hsst2.
Description: as §1, §2, §3, §4, §5

The target of the next test is T5, hSSTR-4 (Homo sapiens, UniProt P31391).
T5 construct: each containing the entire coding region of the full-length receptors; expressed in transfected cells
T5 sequence (P31391 whole entry): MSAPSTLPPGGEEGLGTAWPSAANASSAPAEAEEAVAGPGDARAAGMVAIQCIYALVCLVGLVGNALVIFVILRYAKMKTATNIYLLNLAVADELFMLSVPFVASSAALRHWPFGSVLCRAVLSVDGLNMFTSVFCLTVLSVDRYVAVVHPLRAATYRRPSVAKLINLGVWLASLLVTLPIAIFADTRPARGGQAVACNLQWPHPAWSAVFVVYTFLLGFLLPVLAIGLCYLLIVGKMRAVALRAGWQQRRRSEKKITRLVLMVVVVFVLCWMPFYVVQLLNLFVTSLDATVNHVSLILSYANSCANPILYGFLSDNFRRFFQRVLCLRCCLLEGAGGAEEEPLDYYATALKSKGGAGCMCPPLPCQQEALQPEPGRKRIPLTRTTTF
Briefly: Radioligand binding assay, cloned human somatostatin receptor type 4. To be noted: CHO-K1 cell membranes, displacement of [125I]Tyr11-SRIF; mean ± SEM, single values = one experiment; read-out: Kd ± SEM hsst4.
Description: as §1, §2, §3, §4, §5

The IC50 is the concentration that inhibits the measured activity by half. In general, Kd refers to the concentration at which binding is half-saturated.

On to SRIF-28, for which the IC50 in test [1] worked out at 0.00023 ± 5.2e-05 µM.
Regarding `CN[C@H](Cc1ccccc1)C(=O)N[C@H]1CSSC[C@@H](C(=O)N[C@H](C(N)=O)[C@@H](C)O)NC(=O)[C@H]([C@@H](C)O)NC(=O)[C@H](CCCCN)NC(=O)[C@@H](Cc2c[nH]c3ccccc23)NC(=O)[C@H](Cc2ccccc2)NC1=O` [Example 1, NMeDPhe-cyclo(Cys-Phe-DTrp-Lys-Thr-Cys)-Thr-NH2], the Kd turned out to be 0.316 ± 0.011 µM on hSSTR-1, 0.0179 ± 0.0025 µM on hSSTR-3, 0.00489 ± 0.0014 µM on hSSTR-5 and 0.00103 ± 0.00026 µM at hSSTR-2.
As for `C[C@@H](O)[C@H](NC(=O)[C@@H]1CSSC[C@H](NC(=O)[C@H](N)Cc2ccccc2)C(=O)N[C@@H](Cc2ccccc2)C(=O)N[C@H](Cc2c[nH]c3ccccc23)C(=O)N[C@@H](CCCCN)C(=O)N(C)[C@@H]([C@@H](C)O)C(=O)N1)C(N)=O` [Example 6, DPhe-cyclo(Cys-Phe-DTrp-Lys-NMeThr-Cys)-Thr-NH2], the Kd on hSSTR-1, at hSSTR-3, at hSSTR-5, on hSSTR-2 and on hSSTR-4 was greater than 1 µM in each case.
With `C[C@H](N)C(=O)NCC(=O)N[C@H]1CSSC[C@@H](C(=O)O)NC(=O)[C@H](CO)NC(=O)[C@H]([C@@H](C)O)NC(=O)[C@H](Cc2ccccc2)NC(=O)[C@H]([C@@H](C)O)NC(=O)[C@H](CCCCN)NC(=O)[C@H](Cc2c[nH]c3ccccc23)NC(=O)[C@H](Cc2ccccc2)NC(=O)[C@H](Cc2ccccc2)NC(=O)[C@H](CC(N)=O)NC(=O)[C@H](CCCCN)NC1=O` [SRIF-14], in test [1], the half-inhibitory concentration (IC50) amounted to 0.00017 ± 5.4e-05 µM.
Take `C[C@@H](O)[C@H](NC(=O)[C@@H]1CSSC[C@H](N(C)C(=O)[C@H](N)Cc2ccccc2)C(=O)N[C@@H](Cc2ccccc2)C(=O)N[C@H](Cc2c[nH]c3ccccc23)C(=O)N[C@@H](CCCCN)C(=O)N[C@@H]([C@@H](C)O)C(=O)N1)C(N)=O` [Example 2, DPhe-cyclo(NMeCys-Phe-DTrp-Lys-Thr-Cys)-Thr-NH2]: the equilibrium dissociation constant (Kd) at hSSTR-1 was 0.378 ± 0.119 µM; on hSSTR-3, 0.013 ± 0.0005 µM; at hSSTR-5 it was 0.0237 µM; at hSSTR-2, 0.00104 ± 0.00018 µM; at hSSTR-4 it was greater than 1 µM.
In the case of `C[C@@H](O)[C@H](NC(=O)[C@@H]1CSSC[C@H](NC(=O)[C@H](N)Cc2ccccc2)C(=O)N[C@@H](Cc2ccccc2)C(=O)N[C@H](Cc2c[nH]c3ccccc23)C(=O)N[C@@H](CCCCN)C(=O)N[C@@H]([C@@H](C)O)C(=O)N1C)C(N)=O` [Example 7, DPhe-cyclo(Cys-Phe-DTrp-Lys-Thr-NMeCys)-Thr-NH2], the equilibrium dissociation constant (Kd) on hSSTR-1 amounted to 0.622 ± 0.172 µM; on hSSTR-5, 0.0284 ± 0.0193 µM; at hSSTR-2, 0.0562 ± 0.0264 µM; on hSSTR-4, 0.574 µM.
Consider `C[C@@H](O)[C@H](NC(=O)[C@@H]1CSSC[C@H](NC(=O)[C@H](N)Cc2ccccc2)C(=O)N[C@@H](Cc2ccccc2)C(=O)N(C)[C@H](Cc2c[nH]c3ccccc23)C(=O)N[C@@H](CCCCN)C(=O)N[C@@H]([C@@H](C)O)C(=O)N1)C(N)=O` [Example 4, DPhe-cyclo(Cys-Phe-NMeDTrp-Lys-Thr-Cys)-Thr-NH2], for which the Kd on hSSTR-1 is 1.2 µM; on hSSTR-5, 0.00061 ± 0.00036 µM; on hSSTR-4 it was greater than 1 µM.
On to `C[C@@H](O)[C@H](NC(=O)[C@@H]1CSSC[C@H](NC(=O)[C@@H](N)Cc2ccc(O)cc2)C(=O)N[C@@H](Cc2ccccc2)C(=O)N[C@H](Cc2c[nH]c3ccccc23)C(=O)N[C@@H](CCCCN)C(=O)N(C)[C@@H]([C@@H](C)O)C(=O)N1)C(N)=O` [Example 15, Tyr-cyclo(Cys-Phe-DTrp-Lys-NMeThr-Cys)-Thr-NH2] (H-YCF[dW]K[NMeT]CT-NH2; disulfide 2-7; N-terminus assumed), for which the Kd was 1 µM on hSSTR-1; 0.44 ± 0.126 µM at hSSTR-3; 0.09279 ± 0.0007 µM on hSSTR-5; 0.0613 ± 0.00695 µM at hSSTR-2; no less than 1 µM on hSSTR-4.
